Patent publication US20100137449A1, “SUBSTITUTED 1,3-CYCLOPENTADIONE MULTI-TARGET PROTEIN KINASE MODULATORS OF CANCER, ANGIOGENESIS AND THE INFLAMMATORY PATHWAYS ASSOCIATED THEREWITH” (METAPROTEOMICS, LLC, priority 2007, published 2010)

How the values were obtained:
Assay in all cases: KinaseProfiler Assay
BTK(h) = BTK(h) (Homo sapiens, UniProt Q06187)
Abl(Y253F)(h) = Abl(Y253F)(h) (Homo sapiens, UniProt P00519, Y253F)
MARK1(h) = MARK1(h) (Homo sapiens, UniProt Q9P0L2)
Bmx(h) = biological target: T1, Bmx(h) (Homo sapiens, UniProt P51813)
T1 sequence (P51813 1-675): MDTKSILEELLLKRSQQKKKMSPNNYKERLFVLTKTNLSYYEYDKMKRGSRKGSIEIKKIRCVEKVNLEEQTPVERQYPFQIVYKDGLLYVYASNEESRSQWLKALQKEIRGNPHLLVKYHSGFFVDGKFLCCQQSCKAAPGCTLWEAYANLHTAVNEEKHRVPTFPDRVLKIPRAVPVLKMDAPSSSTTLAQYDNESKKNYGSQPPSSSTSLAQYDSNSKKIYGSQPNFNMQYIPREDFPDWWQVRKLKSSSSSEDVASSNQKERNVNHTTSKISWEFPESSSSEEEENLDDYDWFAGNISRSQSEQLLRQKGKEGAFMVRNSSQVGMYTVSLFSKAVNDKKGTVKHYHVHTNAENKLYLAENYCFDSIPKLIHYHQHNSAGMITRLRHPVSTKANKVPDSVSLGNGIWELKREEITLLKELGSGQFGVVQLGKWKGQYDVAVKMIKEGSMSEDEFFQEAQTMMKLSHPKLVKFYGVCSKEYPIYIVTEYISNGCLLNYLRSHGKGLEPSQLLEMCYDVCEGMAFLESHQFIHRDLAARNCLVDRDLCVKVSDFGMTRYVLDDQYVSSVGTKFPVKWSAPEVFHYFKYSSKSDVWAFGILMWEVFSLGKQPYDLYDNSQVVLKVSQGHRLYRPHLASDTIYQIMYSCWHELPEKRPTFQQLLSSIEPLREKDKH

TLK2(h) = TLK2(h) (Homo sapiens, UniProt Q86UE8)
Sequence of TLK2(h) (Q86UE8 whole entry): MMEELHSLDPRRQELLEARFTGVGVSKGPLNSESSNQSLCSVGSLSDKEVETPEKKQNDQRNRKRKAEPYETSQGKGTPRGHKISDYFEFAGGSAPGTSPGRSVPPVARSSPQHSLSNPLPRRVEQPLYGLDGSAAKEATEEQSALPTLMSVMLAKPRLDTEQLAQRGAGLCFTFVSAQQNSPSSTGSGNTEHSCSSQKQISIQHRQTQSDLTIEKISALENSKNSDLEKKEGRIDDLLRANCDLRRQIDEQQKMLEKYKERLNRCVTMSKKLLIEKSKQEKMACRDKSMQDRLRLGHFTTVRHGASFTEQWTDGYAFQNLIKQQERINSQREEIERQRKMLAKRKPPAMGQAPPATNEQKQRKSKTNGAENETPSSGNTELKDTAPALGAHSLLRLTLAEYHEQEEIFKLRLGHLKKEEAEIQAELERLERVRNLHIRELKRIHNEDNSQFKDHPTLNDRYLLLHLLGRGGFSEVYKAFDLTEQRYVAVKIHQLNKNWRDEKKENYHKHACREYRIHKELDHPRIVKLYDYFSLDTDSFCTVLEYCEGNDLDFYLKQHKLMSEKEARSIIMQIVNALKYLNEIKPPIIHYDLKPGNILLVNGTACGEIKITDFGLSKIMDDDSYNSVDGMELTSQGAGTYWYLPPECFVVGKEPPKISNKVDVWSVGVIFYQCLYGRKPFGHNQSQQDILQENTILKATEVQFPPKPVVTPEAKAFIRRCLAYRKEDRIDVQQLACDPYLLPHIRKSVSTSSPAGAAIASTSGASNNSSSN

PKA(h) = PKA(h) (Homo sapiens, UniProt P17612)
CDK2/cyclinA(h) = CDK2/cyclinA(h) (Homo sapiens, UniProt P24941)
Flt3(D835Y)(h) = biological target: T2, Flt3(D835Y)(h) (Homo sapiens, UniProt P36888, D835Y)
T2 sequence (P36888 27-993 D835Y): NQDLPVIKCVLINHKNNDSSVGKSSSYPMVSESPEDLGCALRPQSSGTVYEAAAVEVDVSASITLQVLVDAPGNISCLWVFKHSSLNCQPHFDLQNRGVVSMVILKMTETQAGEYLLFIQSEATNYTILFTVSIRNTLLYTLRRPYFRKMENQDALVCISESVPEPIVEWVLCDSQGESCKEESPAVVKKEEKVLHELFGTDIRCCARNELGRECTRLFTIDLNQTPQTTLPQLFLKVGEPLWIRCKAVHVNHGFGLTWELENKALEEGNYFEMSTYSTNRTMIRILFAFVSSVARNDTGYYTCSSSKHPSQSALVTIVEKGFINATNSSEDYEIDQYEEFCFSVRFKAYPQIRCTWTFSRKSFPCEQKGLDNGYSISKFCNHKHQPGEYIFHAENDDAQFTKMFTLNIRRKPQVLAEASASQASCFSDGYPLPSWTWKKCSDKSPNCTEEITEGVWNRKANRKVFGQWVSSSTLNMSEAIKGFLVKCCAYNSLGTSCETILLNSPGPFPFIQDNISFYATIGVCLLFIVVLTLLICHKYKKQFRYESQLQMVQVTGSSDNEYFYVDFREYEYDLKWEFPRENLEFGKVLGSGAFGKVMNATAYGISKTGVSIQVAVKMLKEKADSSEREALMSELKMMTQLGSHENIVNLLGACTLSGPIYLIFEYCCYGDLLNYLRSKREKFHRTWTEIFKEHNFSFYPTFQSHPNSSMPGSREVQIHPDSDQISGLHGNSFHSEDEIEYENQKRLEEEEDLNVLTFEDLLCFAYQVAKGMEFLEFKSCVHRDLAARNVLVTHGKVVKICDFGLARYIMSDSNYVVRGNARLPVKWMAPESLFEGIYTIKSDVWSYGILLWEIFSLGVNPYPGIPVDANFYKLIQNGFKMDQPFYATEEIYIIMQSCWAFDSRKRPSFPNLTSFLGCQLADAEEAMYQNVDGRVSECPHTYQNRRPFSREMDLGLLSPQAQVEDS

Hck(h) = Hck(h) (Homo sapiens, UniProt P08631)
Sequence of Hck(h) (P08631 whole entry): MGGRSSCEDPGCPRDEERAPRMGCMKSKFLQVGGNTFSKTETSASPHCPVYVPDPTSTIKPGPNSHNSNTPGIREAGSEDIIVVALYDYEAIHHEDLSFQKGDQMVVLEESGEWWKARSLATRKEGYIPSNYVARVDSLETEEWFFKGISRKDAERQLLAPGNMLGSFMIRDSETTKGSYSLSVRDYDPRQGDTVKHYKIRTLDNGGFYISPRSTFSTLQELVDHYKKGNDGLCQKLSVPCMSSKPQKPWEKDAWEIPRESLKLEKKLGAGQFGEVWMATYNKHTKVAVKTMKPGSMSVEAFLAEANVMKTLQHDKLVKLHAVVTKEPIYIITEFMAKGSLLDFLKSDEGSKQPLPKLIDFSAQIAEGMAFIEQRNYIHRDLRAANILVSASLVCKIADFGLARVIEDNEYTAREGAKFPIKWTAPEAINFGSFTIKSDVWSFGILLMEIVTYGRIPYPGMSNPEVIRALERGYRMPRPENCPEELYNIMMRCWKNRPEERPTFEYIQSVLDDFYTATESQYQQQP

PKCβII(h) = PKCβII(h) (Homo sapiens, UniProt P05771)
Sequence of PKCβII(h) (P05771 1-673 isoform P05771-2): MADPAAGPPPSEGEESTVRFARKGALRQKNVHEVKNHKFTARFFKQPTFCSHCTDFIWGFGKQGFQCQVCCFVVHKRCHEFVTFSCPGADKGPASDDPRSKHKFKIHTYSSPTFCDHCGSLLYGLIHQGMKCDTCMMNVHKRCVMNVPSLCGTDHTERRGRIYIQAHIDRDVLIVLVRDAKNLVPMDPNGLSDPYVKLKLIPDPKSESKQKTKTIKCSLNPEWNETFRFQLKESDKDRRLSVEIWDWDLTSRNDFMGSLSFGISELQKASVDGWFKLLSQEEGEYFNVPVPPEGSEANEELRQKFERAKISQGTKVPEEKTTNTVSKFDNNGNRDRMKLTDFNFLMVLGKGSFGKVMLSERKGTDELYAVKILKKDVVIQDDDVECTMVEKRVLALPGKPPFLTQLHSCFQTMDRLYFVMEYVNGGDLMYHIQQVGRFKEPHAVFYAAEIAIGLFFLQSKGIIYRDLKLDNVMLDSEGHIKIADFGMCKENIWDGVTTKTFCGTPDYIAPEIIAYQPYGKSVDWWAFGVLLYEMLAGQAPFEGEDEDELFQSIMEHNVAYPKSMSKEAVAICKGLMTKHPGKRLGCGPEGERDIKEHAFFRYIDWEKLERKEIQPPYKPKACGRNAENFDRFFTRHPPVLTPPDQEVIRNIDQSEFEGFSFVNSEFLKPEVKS

Sequence of MARK1(h) (Q9P0L2 whole entry): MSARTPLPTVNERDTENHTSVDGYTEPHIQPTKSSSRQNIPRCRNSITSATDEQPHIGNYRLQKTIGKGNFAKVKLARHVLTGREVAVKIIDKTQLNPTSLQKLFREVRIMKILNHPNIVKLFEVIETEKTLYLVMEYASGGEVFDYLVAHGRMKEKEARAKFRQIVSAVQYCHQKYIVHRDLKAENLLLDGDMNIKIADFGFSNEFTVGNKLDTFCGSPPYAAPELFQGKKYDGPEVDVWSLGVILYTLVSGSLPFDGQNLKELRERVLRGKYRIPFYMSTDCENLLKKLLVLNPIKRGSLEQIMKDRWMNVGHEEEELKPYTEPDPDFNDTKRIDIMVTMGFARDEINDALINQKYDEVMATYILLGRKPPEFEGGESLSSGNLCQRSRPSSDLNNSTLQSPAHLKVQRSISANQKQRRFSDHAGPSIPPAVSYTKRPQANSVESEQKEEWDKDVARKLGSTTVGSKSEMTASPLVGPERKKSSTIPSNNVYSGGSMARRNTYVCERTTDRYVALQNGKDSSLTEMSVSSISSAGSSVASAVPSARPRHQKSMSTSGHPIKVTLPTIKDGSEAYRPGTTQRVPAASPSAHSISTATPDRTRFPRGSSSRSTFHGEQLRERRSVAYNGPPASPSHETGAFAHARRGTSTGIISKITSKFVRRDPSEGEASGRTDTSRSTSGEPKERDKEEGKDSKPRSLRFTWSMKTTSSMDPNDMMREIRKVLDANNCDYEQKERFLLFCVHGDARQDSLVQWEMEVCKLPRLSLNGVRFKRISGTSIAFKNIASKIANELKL
Sequence of BTK(h) (Q06187 whole entry): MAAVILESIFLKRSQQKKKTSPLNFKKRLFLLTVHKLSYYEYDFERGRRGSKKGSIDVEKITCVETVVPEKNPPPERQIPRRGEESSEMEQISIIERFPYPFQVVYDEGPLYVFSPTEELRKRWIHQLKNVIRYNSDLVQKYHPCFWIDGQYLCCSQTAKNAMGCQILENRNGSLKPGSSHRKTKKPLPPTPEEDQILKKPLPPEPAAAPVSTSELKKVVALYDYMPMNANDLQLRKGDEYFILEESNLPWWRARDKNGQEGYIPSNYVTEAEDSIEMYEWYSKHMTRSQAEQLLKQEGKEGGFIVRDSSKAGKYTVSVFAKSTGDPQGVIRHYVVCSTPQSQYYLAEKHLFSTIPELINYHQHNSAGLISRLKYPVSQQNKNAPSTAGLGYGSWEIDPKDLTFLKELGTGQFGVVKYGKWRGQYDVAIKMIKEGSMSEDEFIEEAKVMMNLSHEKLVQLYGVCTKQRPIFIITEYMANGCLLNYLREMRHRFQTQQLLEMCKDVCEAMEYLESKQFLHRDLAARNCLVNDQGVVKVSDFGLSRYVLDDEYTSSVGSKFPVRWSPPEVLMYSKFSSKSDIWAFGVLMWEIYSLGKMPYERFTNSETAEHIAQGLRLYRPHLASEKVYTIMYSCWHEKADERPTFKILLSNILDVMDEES

CC(C)CCC(=O)[C@]1(O)C(O)=C(C(=O)C(C)C)C(=O)[C@H]1CCC(C)C [TH2, tetrahydroiso-cohumulone]
kinase inhibition (BTK(h); 1 μg/ml): 98% of control | kinase inhibition (BTK(h); 5 μg/ml): 96% of control | kinase inhibition (BTK(h); 25 μg/ml): 67% of control | kinase inhibition (BTK(h); 50 μg/ml): 59% of control | kinase inhibition (BTK(h); 100 μg/ml): 47% of control | kinase inhibition (Abl(Y253F)(h); 1 μg/ml): 117% of control | kinase inhibition (Abl(Y253F)(h); 5 μg/ml): 100% of control | kinase inhibition (Abl(Y253F)(h); 25 μg/ml): 83% of control | kinase inhibition (Abl(Y253F)(h); 50 μg/ml): 65% of control | kinase inhibition (Abl(Y253F)(h); 100 μg/ml): 58% of control | kinase inhibition (MARK1(h); 1 μg/ml): 109% of control | kinase inhibition (MARK1(h); 5 μg/ml): 110% of control | kinase inhibition (MARK1(h); 25 μg/ml): 97% of control | kinase inhibition (MARK1(h); 50 μg/ml): 90% of control | kinase inhibition (MARK1(h); 100 μg/ml): 63% of control | kinase inhibition (Bmx(h); 1 μg/ml): 88% of control | kinase inhibition (Bmx(h); 5 μg/ml): 90% of control | kinase inhibition (Bmx(h); 25 μg/ml): 89% of control | kinase inhibition (Bmx(h); 50 μg/ml): 79% of control | kinase inhibition (Bmx(h); 100 μg/ml): 61% of control | kinase inhibition (TLK2(h); 1 μg/ml): 98% of control | kinase inhibition (TLK2(h); 5 μg/ml): 89% of control | kinase inhibition (TLK2(h); 25 μg/ml): 106% of control | kinase inhibition (TLK2(h); 50 μg/ml): 94% of control | kinase inhibition (TLK2(h); 100 μg/ml): 98% of control | kinase inhibition (PKA(h); 1 μg/ml): 131% of control | kinase inhibition (PKA(h); 5 μg/ml): 124% of control | kinase inhibition (PKA(h); 25 μg/ml): 93% of control | kinase inhibition (PKA(h); 50 μg/ml): 94% of control | kinase inhibition (PKA(h); 100 μg/ml): 86% of control | kinase inhibition (CDK2/cyclinA(h); 1 μg/ml): 114% of control | kinase inhibition (CDK2/cyclinA(h); 5 μg/ml): 124% of control | kinase inhibition (CDK2/cyclinA(h); 25 μg/ml): 95% of control | kinase inhibition (CDK2/cyclinA(h); 50 μg/ml): 98% of control | kinase inhibition (CDK2/cyclinA(h); 100 μg/ml): 87% of control | kinase inhibition (Flt3(D835Y)(h); 1 μg/ml): 108% of control | kinase inhibition (Flt3(D835Y)(h); 5 μg/ml): 116% of control | kinase inhibition (Flt3(D835Y)(h); 25 μg/ml): 102% of control | kinase inhibition (Flt3(D835Y)(h); 50 μg/ml): 105% of control | kinase inhibition (Flt3(D835Y)(h); 100 μg/ml): 98% of control | kinase inhibition (Hck(h); 1 μg/ml): 103% of control | kinase inhibition (Hck(h); 5 μg/ml): 88% of control | kinase inhibition (Hck(h); 25 μg/ml): 76% of control | kinase inhibition (Hck(h); 50 μg/ml): 62% of control | kinase inhibition (Hck(h); 100 μg/ml): 42% of control | kinase inhibition (PKCβII(h); 1 μg/ml): 107% of control | kinase inhibition (PKCβII(h); 5 μg/ml): 105% of control | kinase inhibition (PKCβII(h); 25 μg/ml): 99% of control | kinase inhibition (PKCβII(h); 50 μg/ml): 103% of control | kinase inhibition (PKCβII(h); 100 μg/ml): 98% of control
